From US5077204A, “Yeast endopeptidase for basic amino-acid site cleavage, preparation and use” (Chiron Corporation, priority 1988, dated 1991)
Read-outs that look alike come from different tables or passages of the source. Peptide text beside a SMILES is read from it. * marks the point of attachment. AMC = Cc1cc(=O)oc2cc(N*)ccc12; Boc = CC(C)(C)OC(=O)*

Legend:
Format in all cases: biochemical, S. cerevisiae
[1] = target: T1, KEX2 endopeptidase (kex2[YEp24-pJ2B] membranes) (Saccharomyces cerevisiae, UniProt P13134); test: Endopeptidase activity in membranes from kex2 cells carrying multicopy plasmid pJ2B (over-produced specific endopeptidase); conditions: for Relative Ratio: kex2[YEp24-pJ2B] relative to kex2[YEp24] = [1.0]; for Rate of hydrolysis (in words) / Rate of hydrolysis, membranes from kex2 cells carrying pJ2B versus membranes from kex2 cells carrying YEp24: membrane fractions; for Rate of hydrolysis (in words): endopeptidase substrates containing single arginine residues; for Rate of hydrolysis, membranes from kex2 cells carrying pJ2B versus membranes from kex2 cells carrying YEp24: depending on the experiment
T1 construct: not only includes the KEX2 gene, but also the necessary transcriptional and translational regulatory signals for expression in yeast; expressed in transfected cells; host or cells: S. cerevisiae XBH16-15A (MATalpha kex2-1) carrying YEp24-pJ2B
T1 sequence (P13134 114-814): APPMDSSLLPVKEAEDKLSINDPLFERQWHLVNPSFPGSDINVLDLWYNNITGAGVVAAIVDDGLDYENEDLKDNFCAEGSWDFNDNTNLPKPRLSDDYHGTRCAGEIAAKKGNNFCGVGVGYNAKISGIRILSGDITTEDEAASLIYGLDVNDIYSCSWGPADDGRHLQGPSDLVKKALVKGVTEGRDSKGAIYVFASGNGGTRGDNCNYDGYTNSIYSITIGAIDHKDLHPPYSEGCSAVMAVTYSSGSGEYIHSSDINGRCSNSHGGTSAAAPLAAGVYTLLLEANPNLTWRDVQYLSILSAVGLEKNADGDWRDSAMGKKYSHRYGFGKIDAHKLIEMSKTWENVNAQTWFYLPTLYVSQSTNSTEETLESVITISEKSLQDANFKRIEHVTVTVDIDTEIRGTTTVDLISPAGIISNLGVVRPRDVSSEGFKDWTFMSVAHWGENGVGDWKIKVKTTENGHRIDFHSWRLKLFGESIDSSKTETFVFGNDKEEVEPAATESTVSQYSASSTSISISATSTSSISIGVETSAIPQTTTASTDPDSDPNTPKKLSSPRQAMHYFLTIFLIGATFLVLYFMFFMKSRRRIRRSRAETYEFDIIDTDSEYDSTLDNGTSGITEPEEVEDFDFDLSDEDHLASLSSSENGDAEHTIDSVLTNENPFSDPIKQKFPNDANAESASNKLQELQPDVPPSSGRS
Description: (§1) Permeabilization of whole yeast cells with the non-ionic detergent Brij 58, preparation of crude membrane fractions, and measurement of protein concentration were conducted by the methods described previously (Julius et al., 1983, supra), incorporated herein by reference. To measure peptidase activity, samples of permeabilized cells or membrane material were added to a reaction mixture containing 0.1-0.5 mM fluorogenic peptide substrate (added from a 20 mM stock dissolved in DMSO) and 200 mM HEPES-Tris (pH 7.0), in a final volume of 0.4 ml. Following incubation for 30 min at 37° C., whole cells were removed by centrifugation in a microfuge (Eppendorf) and membrane material was removed by Ba(OH)2 -ZnSO4 precipitation. The amount of fluorescence formed in the supernatant solution was determined in a fluorescence spectrophotometer (Perkin-Elmer, Model MPF-44B), set either at an excitation wavelength of 335 nm and an emission wavelength of 410 nm (for measurement of β-naphthylamine) or at an excitation wavelength of 380 nm and an emission wavelength of 460 nm (for measurement of 7-amino-4-methyl-coumarin, AMC). To determine the number of moles of substrate hydrolyzed, the fluorescence yield of samples was compared to a standard curve prepared with known concentrations of authentic AMC dissolved in the same buffer.
(§2) Cells of strain XBH1615A that had been transformed with the plasmids
(§3) indicated, or that contained pJ2B in integrated form, were grown in SCUra
(§4) and membranes were prepared as described in the Experimental.
(§5) Endopeptidase activity was assayed as described in the Experimental. All
(§6) substrates tested were present at 0.1 mM.
(§7) Endopeptidase activity was assayed using Boc--GlnArgArg--MCA as the
(§8) substrate, as outlined in the Experimental. All inhibitors were added fro
a 0.1 M stock dissolved in dimethyl sulfoxide.

[2] = test system: background activity in membranes of kex2[YEp24] cells; test: Endopeptidase activity in membranes from kex2 cells transformed with the vector YEp24 alone (background activity); conditions: for Susceptibility of the background activity to inhibition: kex2 cells transformed with YEp24 alone
Description: as §1, §2, §3, §4, §5, §6, §7, §8
(§9) a 0.1 M stock dissolved in dimethyl sulfoxide. All values given were
(§10) corrected for the slight effects of addition of this solvent alone.

[3] = target: T2, KEX2 endopeptidase (kex2::pJ2B membranes) (Saccharomyces cerevisiae, UniProt P13134); test: Endopeptidase activity in membranes from kex2 cells containing pJ2B in integrated form; conditions: for Relative Ratio: kex2::pJ2B relative to kex2[YEp24] = [1.0]
T2 construct: not only includes the KEX2 gene, but also the necessary transcriptional and translational regulatory signals for expression in yeast; expressed in transfected cells; host or cells: S. cerevisiae XBH16-15A (MATalpha kex2-1) containing pJ2B in integrated form; crude membranes
Description: as §1, §2, §3, §4, §5, §6, §7, §8, §9, §10

[4] = kex2 cells transformed with plasmid pJ2B, comparisons are to the background activity
[5] = strain kex2[YEp24], substrate 0.1 mM, membranes
[6] = strain kex2[YEp24-pJ2B], substrate 0.1 mM, membranes
[7] = strain kex2::pJ2B, substrate 0.1 mM, membranes
[8] = kex2[YEp24], inhibitor 1 mM, substrate Boc-GlnArgArg-MCA
[9] = kex2[YEp24], inhibitor 5 mM, substrate Boc-GlnArgArg-MCA
[10] = kex2[YEp24-pJ2B], inhibitor 1 mM, substrate Boc-GlnArgArg-MCA
[11] = kex2[YEp24-pJ2B], inhibitor 5 mM, substrate Boc-GlnArgArg-MCA
[12] = kex2::pJ2B, inhibitor 1 mM, substrate Boc-GlnArgArg-MCA
[13] = kex2::pJ2B, inhibitor 5 mM, substrate Boc-GlnArgArg-MCA

Structure (SMILES): NC(=O)CI [iodoacetamide]
- Susceptibility of the specific KEX2 endopeptidase to inhibition or inactivation [1, 4]: more susceptible to inhibition

Structure (SMILES): O=C(O)CI [iodoacetic acid]
- Susceptibility of the specific KEX2 endopeptidase to inhibition or inactivation [1]: more susceptible to inhibition

Structure (SMILES): C[S+](C)[O-] [dimethyl sulfoxide]
- Susceptibility of the specific KEX2 endopeptidase to inhibition or inactivation [1, 4]: much less sensitive to inactivation

Structure (SMILES): CO [methanol]
- Susceptibility of the specific KEX2 endopeptidase to inhibition or inactivation [1]: much less sensitive to inactivation

Structure (SMILES): CC[C@H](C)[C@H](NC(=O)OC(C)(C)C)C(=O)N[C@@H](CCC(=O)O)C(=O)NCC(=O)N[C@@H](CCCNC(=N)N)C(=O)Nc1ccc2c(C)cc(=O)oc2c1 [Boc--IleGluGlyArg--MCA, Boc-IleGluGlyArg-MCA] (Boc-IEGR-{AMC})
- Specific Activity [2, 5]: 0.3 pmoles AMC formed/μg protein 10
- Relative Ratio ([1]; substrate 0.1 mM): 19.3
- Rate of hydrolysis (in words) [1]: negligible rates
- Specific Activity [1, 6]: 5.8 pmoles AMC formed/μg protein 10
- Relative Ratio ([3]; substrate 0.1 mM): 3.0
- Specific Activity [3, 7]: 0.9 pmoles AMC formed/μg protein 10

Structure (SMILES): NC=O [formamide]
- Susceptibility of the specific KEX2 endopeptidase to inhibition or inactivation [1, 4]: much less sensitive to inactivation

Structure (SMILES): Cc1cc(=O)oc2cc(NC(=O)[C@H](CCCNC(=N)N)NC(=O)[C@H](CO)NC(=O)[C@H](Cc3ccccc3)NC(=O)OC(C)(C)C)ccc12 [Boc--PheSerArg--MCA, Boc-PheSerArg-MCA] (Boc-Phe-Ser-Arg-{AMC})
- Specific Activity [2, 5]: 0.6 pmoles AMC formed/μg protein 10
- Relative Ratio ([1]; substrate 0.1 mM): 51.7
- Rate of hydrolysis relative to Boc-GlnArgArg-MCA, times more slowly ([1]; membrane fractions of kex2 cells carrying pJ2B): about three times more slowly
- Specific Activity [1, 6]: 31.0 pmoles AMC formed/μg protein 10
- Relative Ratio ([3]; substrate 0.1 mM): 6.3
- Specific Activity [3, 7]: 3.8 pmoles AMC formed/μg protein 10

Structure (SMILES): Cc1ccc(S(=O)(=O)NC(CCCCN)C(=O)CCl)cc1 (centres unmarked) [TLCK, tosyl-lysine-chloromethylketone]
- Inhibition [2, 8]: 55%
- Specific Activity [2, 8]: 2.3 pmoles/μg/10 min
- Inhibition [2, 9]: 65%
- Specific Activity [2, 9]: 1.8 pmoles/μg/10 min
- Susceptibility of the background activity to inhibition [2]: sensitive to inhibition
- Specific Activity [1, 10]: 100.8 pmoles/μg/10 min
- inhibition at 1000 µM [1, 10]: 7%
- Specific Activity [1, 11]: 95.5 pmoles/μg/10 min
- inhibition at 5000 µM [1, 11]: 12%
- Susceptibility of the specific KEX2 endopeptidase to inhibition or inactivation [1, 4]: completely resistant
- inhibition at 1000 µM [3]: 16%
- inhibition at 5000 µM [3]: 17%
- Specific Activity [3, 12]: 14.6 pmoles/μg/10 min
- Specific Activity [3, 13]: 14.5 pmoles/μg/10 min

Structure (SMILES): Cc1cc(=O)oc2cc(NC(=O)[C@@H](N)CC(C)C)ccc12 [Leu--MCA, Leu-MCA]
- Specific Activity [2, 5]: 33.7 pmoles AMC formed/μg protein 10
- Relative Ratio ([1]; substrate 0.1 mM): 2.1
- Rate of hydrolysis, membranes from kex2 cells carrying pJ2B versus membranes from kex2 cells carrying YEp24 [1]: no significant increase
- Specific Activity [1, 6]: 69.8 pmoles AMC formed/μg protein 10
- Relative Ratio ([3]; substrate 0.1 mM): 1.1
- Specific Activity [3, 7]: 37.9 pmoles AMC formed/μg protein 10

Structure (SMILES): O=S(=O)(F)Cc1ccccc1 [PMSF, phenylmethylsulfonyl fluoride]
- Inhibition [2, 8]: 45%
- Specific Activity [2, 8]: 2.8 pmoles/μg/10 min
- Inhibition [2, 9]: 71%
- Specific Activity [2, 9]: 1.5 pmoles/μg/10 min
- Susceptibility of the background activity to inhibition [2]: sensitive to inhibition
- Inhibition [1, 10]: 0%
- Specific Activity [1, 10]: 116.7 pmoles/μg/10 min
- Inhibition [1, 11]: 0%
- Specific Activity [1, 11]: 110.2 pmoles/μg/10 min
- Susceptibility of the specific KEX2 endopeptidase to inhibition or inactivation [1, 4]: completely resistant
- Inhibition [3, 12]: 17%
- Specific Activity [3, 12]: 14.4 pmoles/μg/10 min
- Inhibition [3, 13]: 16%
- Specific Activity [3, 13]: 14.7 pmoles/μg/10 min

Structure (SMILES): Cc1ccc(S(=O)(=O)NC(Cc2ccccc2)C(=O)CCl)cc1 (centres unmarked) [TPCK, tosyl-phenylalanine-chloromethylketone]
- Inhibition [2, 8]: 57%
- Specific Activity [2, 8]: 2.2 pmoles/μg/10 min
- Inhibition [2, 9]: 73%
- Specific Activity [2, 9]: 1.4 pmoles/μg/10 min
- Susceptibility of the background activity to inhibition [2]: sensitive to inhibition
- Specific Activity [1, 10]: 105.9 pmoles/μg/10 min
- inhibition at 1000 µM [1, 10]: 2%
- Specific Activity [1, 11]: 109.2 pmoles/μg/10 min
- inhibition at 5000 µM [1, 11]: 0%
- Susceptibility of the specific KEX2 endopeptidase to inhibition or inactivation [1, 4]: completely resistant
- inhibition at 1000 µM [3]: 18%
- inhibition at 5000 µM [3]: 13%
- Specific Activity [3, 12]: 14.3 pmoles/μg/10 min
- Specific Activity [3, 13]: 15.2 pmoles/μg/10 min

Structure (SMILES): Cc1cc(=O)oc2cc(NC(=O)[C@@H](N)CCCNC(=N)N)ccc12 [Arg--MCA, Arg-MCA]
- Specific Activity [2, 5]: 6.7 pmoles AMC formed/μg protein 10
- Relative Ratio ([1]; substrate 0.1 mM): 2.1
- Rate of hydrolysis, membranes from kex2 cells carrying pJ2B versus membranes from kex2 cells carrying YEp24 [1]: no significant increase
- Specific Activity [1, 6]: 14.0 pmoles AMC formed/μg protein 10
- Relative Ratio ([3]; substrate 0.1 mM): 1.2
- Specific Activity [3, 7]: 8.0 pmoles AMC formed/μg protein 10

Structure (SMILES): Cc1cc(=O)oc2cc(NC(=O)[C@H](CCCNC(=N)N)NC(=O)c3ccccc3)ccc12 [Bz--Arg--MCA, Bz-Arg-MCA]
- Specific Activity [2, 5]: 0.1 pmoles AMC formed/μg protein 10
- Relative Ratio ([1]; substrate 0.1 mM): 6.0
- Rate of hydrolysis (in words) [1]: negligible rates
- Specific Activity [1, 6]: 0.6 pmoles AMC formed/μg protein 10
- Relative Ratio ([3]; substrate 0.1 mM): 1.0
- Specific Activity [3, 7]: 0.1 pmoles AMC formed/μg protein 10
